pIC50: −log10 of the molar value. Calls of active or inactive are those of the source. No cut-off for these calls is given here.
What was measured:
[1] = target: Cholinesterase (Equus caballus) (UniProt P81908); experiment: Inhibition of equine BuChE at 25 uM using butyryl-thiocholine iodide as substrate incubated for 30 min by DTNB reagent based Ellman's method
[2] = target: T1, Amine oxidase [flavin-containing] B (Homo sapiens, UniProt P27338); experiment: Inhibition of human MAO-B at 10 uM using p-tyramine as substrate incubated for 30 mins by Amplex Red reagent based fluorescence analysis relative to control; conditions: 0.5 h
T1 sequence (P27338 whole entry): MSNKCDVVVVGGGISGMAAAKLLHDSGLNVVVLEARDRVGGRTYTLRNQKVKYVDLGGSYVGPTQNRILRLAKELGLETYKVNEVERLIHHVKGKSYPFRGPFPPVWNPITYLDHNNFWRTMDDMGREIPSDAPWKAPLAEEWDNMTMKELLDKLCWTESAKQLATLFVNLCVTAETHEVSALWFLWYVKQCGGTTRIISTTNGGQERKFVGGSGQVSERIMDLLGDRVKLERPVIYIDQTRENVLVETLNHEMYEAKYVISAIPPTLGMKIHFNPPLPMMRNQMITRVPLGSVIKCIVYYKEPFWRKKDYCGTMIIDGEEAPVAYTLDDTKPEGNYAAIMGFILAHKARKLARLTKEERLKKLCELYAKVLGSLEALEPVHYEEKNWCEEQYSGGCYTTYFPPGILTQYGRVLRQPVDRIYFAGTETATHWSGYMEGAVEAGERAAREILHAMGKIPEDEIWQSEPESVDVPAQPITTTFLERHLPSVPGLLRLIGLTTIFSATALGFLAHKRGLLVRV

[3] = target: T2, Amine oxidase [flavin-containing] A (Homo sapiens, UniProt P21397); experiment: Inhibition of human MAO-A at 10 uM using p-tyramine as substrate incubated for 30 mins by Amplex Red reagent based fluorescence analysis relative to control; conditions: 0.5 h
T2 sequence (P21397 whole entry): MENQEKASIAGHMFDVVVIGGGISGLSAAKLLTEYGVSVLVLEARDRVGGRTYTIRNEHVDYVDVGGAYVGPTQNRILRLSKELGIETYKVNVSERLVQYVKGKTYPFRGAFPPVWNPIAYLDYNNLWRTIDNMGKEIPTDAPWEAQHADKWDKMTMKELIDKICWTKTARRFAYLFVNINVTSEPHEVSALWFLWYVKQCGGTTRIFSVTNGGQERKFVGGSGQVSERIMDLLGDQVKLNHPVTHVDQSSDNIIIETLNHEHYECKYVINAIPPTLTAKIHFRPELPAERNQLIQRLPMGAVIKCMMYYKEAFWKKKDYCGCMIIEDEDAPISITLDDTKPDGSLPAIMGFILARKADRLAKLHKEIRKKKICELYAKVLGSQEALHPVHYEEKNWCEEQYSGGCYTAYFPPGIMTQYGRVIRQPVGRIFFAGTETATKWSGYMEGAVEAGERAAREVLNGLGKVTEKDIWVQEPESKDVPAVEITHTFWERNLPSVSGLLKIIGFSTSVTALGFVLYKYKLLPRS

[4] = target: Acetylcholinesterase (Electrophorus electricus) (UniProt O42275); experiment: Inhibition of electric eel AChE at 20 uM using acetylthiocholine iodide as substrate incubated for 30 min by DTNB reagent based Ellman's method relative to control
Chain of Acetylcholinesterase (Electrophorus electricus) (O42275 24-633 limits assumed): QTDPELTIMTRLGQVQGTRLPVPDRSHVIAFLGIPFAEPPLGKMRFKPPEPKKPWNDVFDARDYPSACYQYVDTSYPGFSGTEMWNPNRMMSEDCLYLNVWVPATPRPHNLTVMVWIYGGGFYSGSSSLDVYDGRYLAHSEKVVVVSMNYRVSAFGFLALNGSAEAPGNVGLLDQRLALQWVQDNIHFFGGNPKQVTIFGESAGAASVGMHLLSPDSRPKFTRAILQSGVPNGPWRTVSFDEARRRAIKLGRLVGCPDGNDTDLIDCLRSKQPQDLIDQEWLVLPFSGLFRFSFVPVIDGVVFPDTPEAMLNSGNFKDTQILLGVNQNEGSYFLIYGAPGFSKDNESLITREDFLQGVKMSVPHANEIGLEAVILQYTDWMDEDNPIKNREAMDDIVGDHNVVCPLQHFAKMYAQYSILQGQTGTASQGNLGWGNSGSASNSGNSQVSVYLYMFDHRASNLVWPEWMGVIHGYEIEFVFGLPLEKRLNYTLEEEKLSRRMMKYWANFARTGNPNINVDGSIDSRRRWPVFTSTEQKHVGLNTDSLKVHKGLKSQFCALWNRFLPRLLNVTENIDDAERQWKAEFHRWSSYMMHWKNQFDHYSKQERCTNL

[5] = Cytotoxicity against human SH-SY5Y cells assessed as cell viability at 25 uM by MTT assay (reference value: 100 +/- 0.22); format: toxicity, cell-based; conditions: read-out: Activity
[6] = target: Acetylcholinesterase (Electrophorus electricus) (UniProt O42275); experiment: (§1) Inhibition of electric eel AChE assessed as residual activity at 10 time IC50 concentration using acetylthiocholine iodide as substrate incubated for 30 min by DTNB reagent based Ellman's method (reference value: 100 +/- 0.37%)
[7] = target: Acetylcholinesterase (Electrophorus electricus) (UniProt O42275); experiment: (§2) Inhibition of electric eel AChE assessed as residual activity at 100 time IC50 concentration using acetylthiocholine iodide as substrate incubated for 30 min by DTNB reagent based Ellman's method (reference value: 100 +/- 0.37%)
[8] = Cytotoxicity against human SH-SY5Y cells assessed as cell viability at 1 uM by MTT assay (reference value: 100 +/- 0.22); format: toxicity, cell-based; conditions: read-out: Activity
[9] = target: Acetylcholinesterase (Electrophorus electricus) (UniProt O42275); experiment: Non-competitive inhibition of electric eel AChE assessed as increase in Km using acetylthiocholine iodide as substrate incubated for 30 min by Ellman's method based Lineweaver-Burk plot analysis
[10] = target: T1, Amine oxidase [flavin-containing] B; experiment: Reversible inhibition of human MAO-B assessed as residual activity at 10 time IC50 concentration using p-tyramine as substrate incubated for 30 mins followed by 100-fold dilution with substrate and buffer solutions by Amplex Red reagent based fluorescence analysis (reference value: 100 +/- 0.37%); conditions: 0.5 h
[11] = target: Cholinesterase (Equus caballus) (UniProt P81908); experiment: Inhibition of equine BuChE at 20 uM using butyryl-thiocholine iodide as substrate incubated for 30 min by DTNB reagent based Ellman's method relative to control
[12] = target: T1, Amine oxidase [flavin-containing] B; experiment: Inhibition of human MAO-B assessed as residual activity at 100 time IC50 concentration using p-tyramine as substrate incubated for 30 mins by Amplex Red reagent based fluorescence analysis (reference value: 100 +/- 0.37%); conditions: 0.5 h
[13] = target: T1, Amine oxidase [flavin-containing] B; experiment: Inhibition of human MAO-B assessed as residual activity at 10 time IC50 concentration using p-tyramine as substrate incubated for 30 mins by Amplex Red reagent based fluorescence analysis (reference value: 100 +/- 0.37%); conditions: 0.5 h
[14] = target: T1, Amine oxidase [flavin-containing] B; experiment: Reversible inhibition of human MAO-B assessed as residual activity at 100 time IC50 concentration using p-tyramine as substrate incubated for 30 mins followed by 100-fold dilution with substrate and buffer solutions by Amplex Red reagent based fluorescence analysis (reference value: 100 +/- 0.37%); conditions: 0.5 h
[15] = target: Acetylcholinesterase (Electrophorus electricus) (UniProt O42275); experiment: Non-competitive inhibition of electric eel AChE assessed as decrease in Vmax using acetylthiocholine iodide as substrate incubated for 30 min by Ellman's method based Lineweaver-Burk plot analysis
[16] = target: Acetylcholinesterase (Electrophorus electricus) (UniProt O42275); experiment: as §1, with “Reversible inhibition” for “Inhibition”, “min followed by 100-fold dilution with substrate and buffer solutions” for “min”
[17] = target: T1, Amine oxidase [flavin-containing] B; experiment: Inhibition of human MAO-B using p-tyramine as substrate incubated for 30 mins by Amplex Red reagent based fluorescence analysis
[18] = target: Acetylcholinesterase (Electrophorus electricus, UniProt O42275); experiment: Inhibition of electric eel AChE using acetylthiocholine iodide as substrate incubated for 30 min by DTNB reagent based Ellman's method
Chain of Acetylcholinesterase (Electrophorus electricus, UniProt O42275) (O42275 whole entry): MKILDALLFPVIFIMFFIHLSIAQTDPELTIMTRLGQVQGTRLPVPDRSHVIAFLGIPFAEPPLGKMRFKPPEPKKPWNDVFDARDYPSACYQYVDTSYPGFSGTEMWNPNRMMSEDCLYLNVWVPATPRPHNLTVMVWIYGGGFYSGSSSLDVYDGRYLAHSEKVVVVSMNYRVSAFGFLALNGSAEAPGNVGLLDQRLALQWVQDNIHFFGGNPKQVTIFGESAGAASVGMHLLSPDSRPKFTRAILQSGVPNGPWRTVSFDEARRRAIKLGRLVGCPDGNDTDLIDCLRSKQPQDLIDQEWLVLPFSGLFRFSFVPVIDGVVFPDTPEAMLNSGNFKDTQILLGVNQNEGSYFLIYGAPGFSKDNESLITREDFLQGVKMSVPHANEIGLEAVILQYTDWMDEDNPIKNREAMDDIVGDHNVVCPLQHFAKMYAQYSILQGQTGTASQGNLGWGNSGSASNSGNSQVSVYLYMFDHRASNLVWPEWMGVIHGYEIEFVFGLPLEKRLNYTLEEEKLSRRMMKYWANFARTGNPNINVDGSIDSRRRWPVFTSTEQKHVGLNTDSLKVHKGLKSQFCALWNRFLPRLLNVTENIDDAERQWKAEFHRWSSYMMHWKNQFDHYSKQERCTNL

[19] = target: Acetylcholinesterase (Electrophorus electricus) (UniProt O42275); experiment: as §2, with “Reversible inhibition” for “Inhibition”, “min followed by 100-fold dilution with substrate and buffer solutions” for “min”
[20] = target: Amyloid-beta precursor protein (Homo sapiens) (UniProt P05067); experiment: Inhibition of amyloid beta (1 to 42) (unknown origin) aggregation at 10 uM incubated for 24 hrs by ThT assay relative to control
Chain of Amyloid-beta precursor protein (Homo sapiens) (P05067 whole entry): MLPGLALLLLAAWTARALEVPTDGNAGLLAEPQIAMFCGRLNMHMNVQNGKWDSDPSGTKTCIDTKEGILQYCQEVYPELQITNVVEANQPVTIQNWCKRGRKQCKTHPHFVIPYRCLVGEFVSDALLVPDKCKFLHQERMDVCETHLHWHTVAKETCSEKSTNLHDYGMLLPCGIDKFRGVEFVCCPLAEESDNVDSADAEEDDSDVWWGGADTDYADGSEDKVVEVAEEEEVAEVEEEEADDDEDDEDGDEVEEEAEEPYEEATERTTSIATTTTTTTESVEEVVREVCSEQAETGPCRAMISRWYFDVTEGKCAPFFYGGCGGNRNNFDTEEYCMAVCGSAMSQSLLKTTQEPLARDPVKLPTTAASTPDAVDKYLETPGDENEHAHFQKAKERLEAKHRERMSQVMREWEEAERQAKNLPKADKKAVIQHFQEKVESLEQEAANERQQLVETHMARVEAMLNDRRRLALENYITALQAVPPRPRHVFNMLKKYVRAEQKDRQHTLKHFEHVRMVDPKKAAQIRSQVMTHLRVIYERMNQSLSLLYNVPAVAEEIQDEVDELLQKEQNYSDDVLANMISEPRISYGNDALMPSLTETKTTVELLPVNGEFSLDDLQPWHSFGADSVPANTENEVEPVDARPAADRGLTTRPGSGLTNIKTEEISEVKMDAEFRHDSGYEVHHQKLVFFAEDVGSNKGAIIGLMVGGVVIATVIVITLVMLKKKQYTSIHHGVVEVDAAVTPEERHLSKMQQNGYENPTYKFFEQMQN

[21] = target: Amyloid-beta precursor protein (Homo sapiens) (UniProt P05067); experiment: Inhibition of amyloid beta (1 to 42) (unknown origin) aggregation at 10 uM incubated for 48 hrs by ThT assay relative to control
[22] = Cytotoxicity against human SH-SY5Y cells assessed as cell viability at 5 uM by MTT assay (reference value: 100 +/- 0.22); format: toxicity, cell-based; conditions: read-out: Activity
[23] = Inhibition of MAO (unknown origin); design: species or system Homo sapiens
[24] = target: Acetylcholinesterase (Homo sapiens, UniProt P22303); experiment: Inhibition of AChE (unknown origin)
Chain of Acetylcholinesterase (Homo sapiens, UniProt P22303) (P22303 whole entry): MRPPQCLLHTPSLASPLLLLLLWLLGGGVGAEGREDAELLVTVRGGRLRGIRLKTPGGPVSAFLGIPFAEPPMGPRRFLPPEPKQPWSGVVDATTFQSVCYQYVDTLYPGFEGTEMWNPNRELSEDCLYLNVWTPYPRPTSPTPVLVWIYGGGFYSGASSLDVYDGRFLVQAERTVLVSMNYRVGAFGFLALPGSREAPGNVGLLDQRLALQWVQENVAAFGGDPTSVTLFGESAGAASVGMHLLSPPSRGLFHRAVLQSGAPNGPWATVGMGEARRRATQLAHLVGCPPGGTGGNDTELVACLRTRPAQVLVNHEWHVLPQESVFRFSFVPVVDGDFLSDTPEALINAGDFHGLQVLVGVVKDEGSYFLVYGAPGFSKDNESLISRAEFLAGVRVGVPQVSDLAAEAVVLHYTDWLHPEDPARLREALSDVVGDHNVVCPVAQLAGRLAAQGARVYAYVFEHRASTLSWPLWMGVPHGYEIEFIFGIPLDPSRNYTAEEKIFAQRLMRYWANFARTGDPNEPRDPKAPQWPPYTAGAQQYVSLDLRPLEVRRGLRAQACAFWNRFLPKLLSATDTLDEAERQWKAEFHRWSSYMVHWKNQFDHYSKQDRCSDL

[25] = target: T1, Amine oxidase [flavin-containing] B; experiment: Inhibition of MAO-B (unknown origin)
[26] = target: T2, Amine oxidase [flavin-containing] A; experiment: Inhibition of human MAO-A at 25 uM using p-tyramine as substrate incubated for 30 mins by Amplex Red reagent based fluorescence analysis; conditions: 0.5 h
[27] = target: T1, Amine oxidase [flavin-containing] B; experiment: Inhibition of human MAO-B using p-tyramine as substrate preincubated for 15 mins followed by substrate addition and measured after 30 mins by Amplex Red reagent based fluorescence analysis

Chain of Cholinesterase (Equus caballus) (P81908 whole entry): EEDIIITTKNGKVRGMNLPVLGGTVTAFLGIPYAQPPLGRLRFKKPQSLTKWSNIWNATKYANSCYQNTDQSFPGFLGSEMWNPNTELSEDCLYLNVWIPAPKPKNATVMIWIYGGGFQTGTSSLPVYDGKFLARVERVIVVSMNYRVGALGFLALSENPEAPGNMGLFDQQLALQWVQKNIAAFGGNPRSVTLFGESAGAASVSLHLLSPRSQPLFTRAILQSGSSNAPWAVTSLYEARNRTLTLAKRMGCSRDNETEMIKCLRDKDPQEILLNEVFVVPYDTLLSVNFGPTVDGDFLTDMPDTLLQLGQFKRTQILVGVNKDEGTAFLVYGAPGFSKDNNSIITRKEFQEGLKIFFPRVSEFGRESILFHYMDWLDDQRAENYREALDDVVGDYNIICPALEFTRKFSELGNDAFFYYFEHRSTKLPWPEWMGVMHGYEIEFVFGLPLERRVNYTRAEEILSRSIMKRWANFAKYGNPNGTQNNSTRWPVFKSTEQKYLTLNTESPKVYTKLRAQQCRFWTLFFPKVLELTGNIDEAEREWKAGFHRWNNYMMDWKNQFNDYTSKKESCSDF

Row | Compound | inhibition at 10 µM [2] [%] | inhibition at 10 µM [3] [%] | inhibition [4] [%] | inhibition [11] [%] | also measured
1 | C#CCOc1cccc(-c2cc(/C(C)=C/c3ccccc3)ncn2)c1 | 23.4 | 0.87 | 65.7 | – | inhibition [1]: inactive
2 | C#CCOc1cccc(-c2cc(/C=C/c3ccccc3)ncn2)c1 | 76.4 | 13.9 | 69.2 | 6.43 | viability at 25 µM [5]: 86.5%; Activity [6]: 5.18%; Activity [7]: 13.6%; viability at 1 µM [8]: 91%; inhibition [9]: Active; Activity [10]: 34.91%; Activity [12]: 3.4%; Activity [13]: 2.6%; Activity [14]: 36.72%; inhibition [15]: Active; Activity [16]: 96.7%; pIC50 [17]: 5.31; pIC50 [18]: 5.04; Activity [19]: 47.9%; inhibition [20]: 29.3%; inhibition [21]: 33%; viability at 5 µM [22]: 90.7%
3 | C#CCOc1ccccc1-c1cc(/C=C/c2ccccc2)nc(-c2ccccc2)n1 | 3.49 | 9.57 | 64.2 | 3.6 | –
4 | C#CCOc1ccc(-c2cc(/C=C/c3ccccc3)nc(C)n2)cc1C | 0.27 | 0.96 | 67 | – | inhibition [1]: inactive
5 | C#CCOc1cccc(-c2cc(/C=C/c3ccccc3)nc(C)n2)c1 | 2.96 | 15.5 | 61.6 | 3.17 | –
6 | O=C1c2ccccc2-c2cnc(-c3ccccc3)nc21 | – | – | – | – | pIC50 [23]: 5.63
7 | C#CCNc1ccccc1-c1cc(-c2ccc(OCCN3CCCCC3)cc2)nc(N)n1 | – | – | – | – | pIC50 [24]: 4.40; pIC50 [25]: 6.43
8 | C#CCOc1ccc(-c2cc(/C=C/c3ccccc3)nc(-c3ccccc3)n2)cc1 | 7.18 | 20.9 | 70.2 | 3.6 | –
9 | C#CCOc1ccc(-c2cc(/C(C)=C\c3ccccc3)ncn2)cc1 | 71.2 | – | 69 | 9.69 | viability at 25 µM [5]: 95.7%; Activity [6]: 7.45%; inhibition (INH) [26]: Not Active; Activity [7]: 18.6%; viability at 1 µM [8]: 98.1%; inhibition [9]: Active; Activity [10]: 30.37%; Activity [12]: 2.79%; Activity [13]: 2.79%; Activity [14]: 36.07%; inhibition [15]: Active; Activity [16]: 97.1%; pIC50 [17]: 5.14; pIC50 [18]: 5.03; Activity [19]: 42.9%; inhibition [20]: 21.6%; inhibition [21]: 23.2%; viability at 5 µM [22]: 96.3%
10 | N#Cc1cccnc1N1CCN(c2cc(Oc3cccc4cccnc34)ncn2)CC1 | – | – | – | – | pIC50 [24]: 7.44
11 | C#CCOc1ccc(-c2cc(/C(C)=C/c3ccccc3)nc(C)n2)cc1 | 15.7 | 10.9 | 60.5 | – | inhibition [1]: inactive
12 | C#CCOc1cccc(-c2cc(/C(C)=C\c3ccccc3)nc(N)n2)c1 | 69.7 | 12 | 66.3 | 7.03 | pIC50 [17]: 5.09; pIC50 [18]: 5.07
13 | C#CCOc1ccc(-c2cc(/C=C/c3ccccc3)nc(N)n2)cc1C | 11.9 | 13.1 | 62.6 | – | inhibition [1]: inactive
14 | C#CCOc1ccc(-c2cc(/C=C\c3ccccc3)ncn2)cc1 | 67.5 | – | 63.4 | – | inhibition [1]: inactive; inhibition (INH) [26]: Not Active; pIC50 [17]: 4.96; pIC50 [18]: 5.13
15 | C#CCOc1ccc(-c2cc(/C(C)=C/c3ccccc3)nc(N)n2)cc1 | 1.79 | 8.66 | 71.3 | 3.04 | –
16 | C#CCOc1ccccc1-c1cc(-c2ccc(Cl)cc2)nc(-c2ccccc2)n1 | – | – | – | – | pIC50 [27]: 6.32
17 | C#CCOc1ccc(-c2cc(-c3ccc(OCC#C)cc3)nc(N)n2)cc1 | – | – | – | – | pIC50 [24]: 5.87
18 | C#CCOc1cccc(-c2cc(/C=C/c3ccccc3)nc(-c3ccccc3)n2)c1 | 4.89 | 0.4 | 69.6 | 1.5 | –
19 | C#CCOc1ccc(-c2cc(/C=C/c3ccccc3)nc(N)n2)cc1 | 9.28 | 8.61 | 68.5 | 2.12 | –
20 | C#CCOc1ccc(-c2cc(/C=C/c3ccccc3)nc(C)n2)cc1 | 20.9 | 10 | 62.8 | 8.16 | –
21 | Oc1ccc(/C=C/c2cc(O)cc(O)c2)cc1 | – | – | – | – | inhibition [20]: 54.6%
